Measurements as given in ChEMBL document CHEMBL6182916, “Unexpected Discovery of a Novel Triphenylphosphonium Alkylalcohol That Triggers Cancer Cell Death via Mitophagy and Ferroptosis” (J Med Chem, 2025).
Calls of active or inactive are those of the source. No cut-off for these calls is given here.

Columns and labels:
HCC827 [1] = test: Inhibition of cell migration in human HCC827 cells by wound healing assay; format: functional, cell-based; conditions: dose 0.05-0.1 µM
HCC827 [2] = test: Downregulation of SDHB expression in human HCC827 cells at 0.25 uM by Western blot analysis; format: functional, cell-based; conditions: time <= 24.0 hrs
HCC827 [3] = test: Upregulation of parkin phosphorylation level in human HCC827 cells at 0.25 to 0.5 uM measured after 24 hrs; format: functional, cell-based; conditions: dose 0.25-0.5 µM
HCC827 [4] = test: Induction of cell cycle arrest in human HCC827 cells assessed as accumulation of cells at S phase at 0.4 uM incubated for 24 hrs by PI staining based flow cytometry analysis (reference value: 26.41%); format: functional
NCI-H1975 = test: Antiproliferative activity against human NCI-H1975 cells assessed as inhibition of cell growth measured after 72 hrs by MTT assay; format: functional, cell-based; conditions: NCI-H1975, 72 h
HCC827 [5] = test: Downregulation of TIMM23 expression level in human HCC827 cells at 0.5 uM incubated for 24 hrs in presence of Baf A1 by Western blot analysis; format: functional, cell-based
HCC827 [6] = test: Induction of apoptosis in human HCC827 cells assessed as late apoptotic cells at 1 uM measured after 36 hrs by annexin V and PI staining based flow cytometry analysis (reference value: 2.18%); format: functional
Mitochondrial membrane [7] = test: Induction of mitochondrial membrane depolarization in human HCC827 cells assessed as decrease in red fluorescence at 0.125 to 0.5 uM incubated for 4 hrs by JC-1 staining based confocal microscopy analysis; format: cell membranes; conditions: dose 0.125-0.5 µM
HCC827 [8] = test: Induction of cell cycle arrest in human HCC827 cells assessed as accumulation of cells at G1 phase at 0.1 uM incubated for 24 hrs by PI staining based flow cytometry analysis (reference value: 66.44%); format: functional
HCC827 [9] = test: Induction of cell cycle arrest in human HCC827 cells assessed as accumulation of cells at G2 phase at 0.1 uM incubated for 24 hrs by PI staining based flow cytometry analysis (reference value: 7.15%); format: functional
[10] = Antiproliferative activity against human HUVEC cells assessed as inhibition of cell growth measured after 72 hrs by MTT assay; format: toxicity, cell-based
HCC827 [11] = test: Induction of mitochondrial dysfunction in human HCC827 cells assessed as reduction in glycolytic reserve at 0.125 to 5 uM incubated for 4 hrs by Seahorse XF96 extracellular flux analyzer; format: functional, cell-based; conditions: dose 0.125-5 µM
HCC827 [12] = test: Induction of ROS generation in human HCC827 cells at 1 uM incubated for 4 hrs in presence of VC by DCFH-DA staining based by absorbance based laser confocal microscopic analysis; format: functional, cell-based
HCC827 [13] = test: Induction of mitochondrial dysfunction in human HCC827 cells assessed as mitochondrial shrinkage by TEM analysis; format: functional, cell-based
Mitochondrial membrane [14] = test: Induction of mitochondrial membrane depolarization in HEK293T cells assessed as JC-1 monomer ratio by measuring increase green fluorescence at 0.25 uM incubated for 4 hrs by JC-1 staining based confocal microscopy analysis; format: cell membranes; conditions: Homo sapiens
HCC827 [15] = test: Induction of mitochondrial dysfunction in human HCC827 cells assessed as suppression of basal respiration incubated for 4 hrs by Seahorse XF96 extracellular flux analyzer; format: functional, cell-based; conditions: dose 0.125-5 µM
HCC827 [16] = test: Downregulation of HK-2 expression level in human HCC827 cells incubated for 24 hrs by Western blot analysis; format: functional, cell-based; conditions: dose 0.25-0.5 µM
HCC827 [17] = test: Antiproliferative activity against human HCC827 cells assessed as cell viability preincubated with FMK followed by compound addition and measured after 48 hrs by MTT assay; format: functional, cell-based
HCC827 [18] = test: Induction of ferroptosis in human HCC827 cells assessed as decrease in xCT expression incubated for 24 hrs; format: functional, cell-based; conditions: dose 0.25-0.5 µM
HCC827 [19] = test: Downregulation of TIMM23 expression level in human HCC827 cells incubated for 24 hrs by Western blot analysis; format: functional, cell-based; conditions: dose 0.25-0.5 µM
HCC827 [20] = test: Inhibition of colony formation in human HCC827 cells incubated for 72 hrs by crystal violet staining based analysis; format: functional, cell-based; conditions: dose 50-100 nM
HCC827 [21] = test: Induction of mitochondrial dysfunction in human HCC827 cells assessed as appearance of vacuoles with damaged mitochondria at 1 uM after 24 hrs by TEM analysis; format: functional, cell-based
HCC827 [22] = test: Antiproliferative activity against human HCC827 cells assessed as increase in cell viability at 1 uM measured after 48 hrs in presence of BFA by MTT assay; format: functional, cell-based
HCC827 [23] = test: Induction of apoptosis in human HCC827 cells assessed as early apoptotic cells at 0.5 uM measured after 48 hrs by annexin V and PI staining based flow cytometry analysis (reference value: 0.70%); format: functional
HCC827 [24] = test: Induction of ROS generation in human HCC827 cells assessed as increase in superoxide anion level by measuring increase in red fluorescence intensity at 1 uM incubated for 4 hrs by laser scanning confocal fluorescence microscopic analysis; format: functional, cell-based
HCC827 [25] = test: Induction of ferroptosis in human HCC827 cells assessed as increase in MDA content incubated for 24 hrs by absorbance based analysis; format: functional, cell-based; conditions: dose 0.25-0.5 µM
HCC827 [26] = test: Antiproliferative activity against human HCC827 cells assessed as inhibition of cell growth measured after 72 hrs by MTT assay; format: functional, cell-based; conditions: HCC827, 72 h
HCC827 [27] = test: Downregulation of HK-2 expression level in human HCC827 cells 0.5 uM by Western blot analysis; format: functional, cell-based; conditions: time 3-24 hrs
[28] = target: T1, Heat shock protein 75 kDa, mitochondrial (Homo sapiens) (UniProt Q12931); test: Inhibition of human TRAP1 assessed as fold increase in ATPase activity at 20 uM
T1 sequence (whole entry): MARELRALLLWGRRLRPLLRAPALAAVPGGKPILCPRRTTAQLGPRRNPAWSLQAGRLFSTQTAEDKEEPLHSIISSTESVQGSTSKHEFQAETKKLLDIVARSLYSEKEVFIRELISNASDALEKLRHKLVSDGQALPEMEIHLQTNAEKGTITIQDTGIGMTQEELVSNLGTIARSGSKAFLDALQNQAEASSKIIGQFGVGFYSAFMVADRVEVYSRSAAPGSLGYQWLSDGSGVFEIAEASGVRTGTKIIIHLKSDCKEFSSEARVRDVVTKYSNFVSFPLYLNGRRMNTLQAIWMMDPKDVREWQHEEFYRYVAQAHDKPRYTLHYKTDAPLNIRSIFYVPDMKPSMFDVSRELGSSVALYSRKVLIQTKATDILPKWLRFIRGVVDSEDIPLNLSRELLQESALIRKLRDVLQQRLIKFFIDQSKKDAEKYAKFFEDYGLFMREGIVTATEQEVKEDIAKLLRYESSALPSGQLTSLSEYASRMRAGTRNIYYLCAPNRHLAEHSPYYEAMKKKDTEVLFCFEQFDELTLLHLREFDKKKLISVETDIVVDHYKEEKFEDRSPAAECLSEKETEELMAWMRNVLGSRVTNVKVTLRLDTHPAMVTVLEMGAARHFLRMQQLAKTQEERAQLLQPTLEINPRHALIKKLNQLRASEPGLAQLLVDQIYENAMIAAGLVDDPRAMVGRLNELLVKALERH

HCC827 [29] = test: Antiproliferative activity against human HCC827 cells assessed as cell viability at 1 uM measured after 48 hrs in presence of ferrostatin-1 by MTT assay relative to control; format: functional; conditions: read-out: Activity

For `Cc1ccc([P+](CCCCCCCCCCO)(c2ccc(C)cc2)c2ccc(C)cc2)cc1.[Br-]`, the inhibition (HCC827 [1]) was “Dose-dependent-effect”, the Activity (HCC827 [2]) was “Time-dependent-effect” and the Activity (HCC827 [3]) was “Active”. For the same molecule, the Activity (HCC827 [4]) was 9.39%, the IC50 (NCI-H1975) was 200 nM and the Activity (HCC827 [5]) was “inactive”. For the same molecule, the Activity (HCC827 [6]) was 0.32%, the Activity (Mitochondrial membrane [7]) was “Active” and the Activity (HCC827 [8]) was 71.14%. For the same molecule, the Activity (HCC827 [9]) was 4.83%, the IC50 at 72 h [10] was 1800 nM and the Activity (HCC827 [11]) was “Active”. The Activity (HCC827 [12]) was “inactive”, the Activity (HCC827 [13]) was “Active” and the Activity (Mitochondrial membrane [14]) was “inactive”. The Activity (HCC827 [15]) was “Dose-dependent-effect”, the Activity (HCC827 [16]) was “Dose-dependent-effect” and the IC50 (HCC827 [17]) was 110 nM. The Activity (HCC827 [18]) was “Dose-dependent-effect”, the Activity (HCC827 [19]) was “Dose-dependent-effect” and the inhibition (HCC827 [20]) was “Dose-dependent-effect”. The Activity (HCC827 [21]) was “Active”, the Activity (HCC827 [22]) was “Active” and the Activity (HCC827 [23]) was 2.34%. For the same molecule, the Activity (HCC827 [24]) was “Active”, the Activity (HCC827 [25]) was “Dose-dependent-effect” and the IC50 (HCC827 [26]) was 70 nM. For the same molecule, the Activity (HCC827 [27]) was “Time-dependent-effect”, the fold change (FC) [28] was 2 and the viability at 1 µM (HCC827 [29]) was 51.4%.
